# Read-outs that look alike come from different tables or passages of the source.
# Tests used:
# [1] = target: T1, AEA-DA lipid probe targets in Neuro2a cells (Mus musculus, UniProt Q791V5)
# T1 sequence (Q791V5 1-303): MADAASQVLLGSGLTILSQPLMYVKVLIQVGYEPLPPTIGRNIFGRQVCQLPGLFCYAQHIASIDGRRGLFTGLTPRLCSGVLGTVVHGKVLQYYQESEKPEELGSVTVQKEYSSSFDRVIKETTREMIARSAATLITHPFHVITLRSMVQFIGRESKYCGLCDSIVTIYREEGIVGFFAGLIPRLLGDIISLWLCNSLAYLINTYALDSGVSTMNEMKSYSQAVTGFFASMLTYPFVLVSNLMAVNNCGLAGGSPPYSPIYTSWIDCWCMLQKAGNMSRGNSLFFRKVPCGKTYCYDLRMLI
# [2] = target: T2, AEA-DA lipid probe targets in Neuro2a cells (Mus musculus, UniProt Q99L04)
# T2 sequence (Q99L04 1-313): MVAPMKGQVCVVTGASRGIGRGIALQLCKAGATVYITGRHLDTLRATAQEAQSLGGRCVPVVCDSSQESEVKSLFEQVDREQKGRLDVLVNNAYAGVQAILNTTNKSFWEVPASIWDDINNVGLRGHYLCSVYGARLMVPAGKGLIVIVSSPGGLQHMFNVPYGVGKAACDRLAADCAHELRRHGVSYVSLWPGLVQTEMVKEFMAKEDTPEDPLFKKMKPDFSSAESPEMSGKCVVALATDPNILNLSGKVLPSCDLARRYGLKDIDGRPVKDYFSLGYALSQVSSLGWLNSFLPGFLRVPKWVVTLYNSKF
# [3] = target: AEA-DA lipid probe targets in Neuro2a cells (Mus musculus, UniProt P60229)
# [4] = target: AEA-DA lipid probe targets in Neuro2a cells (Mus musculus, UniProt P70699)
# [5] = target: AEA-DA lipid probe targets in Neuro2a cells (Mus musculus, UniProt P52019); settings: for SILAC ratio, SQLE (Q14534): Neuro2a cells, AEA-DA probe
# [6] = target: T3, AEA-DA lipid probe targets in Neuro2a cells (Mus musculus, UniProt Q920A5)
# T3 sequence (Q920A5 29-452): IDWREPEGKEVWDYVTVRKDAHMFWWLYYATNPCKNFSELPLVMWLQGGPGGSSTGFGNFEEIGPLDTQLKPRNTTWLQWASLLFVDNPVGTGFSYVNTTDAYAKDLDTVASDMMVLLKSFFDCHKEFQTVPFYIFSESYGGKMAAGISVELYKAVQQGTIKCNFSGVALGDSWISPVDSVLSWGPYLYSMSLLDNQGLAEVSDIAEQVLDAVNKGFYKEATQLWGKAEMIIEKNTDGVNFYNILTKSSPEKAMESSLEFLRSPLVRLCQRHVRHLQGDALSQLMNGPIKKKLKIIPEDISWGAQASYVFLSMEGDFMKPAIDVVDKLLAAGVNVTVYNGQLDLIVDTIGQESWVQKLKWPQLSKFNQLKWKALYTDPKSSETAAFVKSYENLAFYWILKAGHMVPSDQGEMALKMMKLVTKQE
# [7] = target: AEA-DA lipid probe targets in Neuro2a cells (Mus musculus, UniProt Q91XC9)
# [8] = target: T4, AEA-DA lipid probe targets in Neuro2a cells (Mus musculus, UniProt Q8BMG8)
# T4 sequence (Q8BMG8 1-316): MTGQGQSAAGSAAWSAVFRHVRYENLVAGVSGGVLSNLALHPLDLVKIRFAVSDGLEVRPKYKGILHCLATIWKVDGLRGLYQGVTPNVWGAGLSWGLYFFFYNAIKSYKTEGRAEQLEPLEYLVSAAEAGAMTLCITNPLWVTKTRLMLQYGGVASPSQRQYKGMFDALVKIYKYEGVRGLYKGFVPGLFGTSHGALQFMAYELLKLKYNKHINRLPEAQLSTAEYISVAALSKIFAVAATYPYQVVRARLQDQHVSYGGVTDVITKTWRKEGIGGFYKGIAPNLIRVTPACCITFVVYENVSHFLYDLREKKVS
# [9] = target: T5, AEA-DA lipid probe targets in Neuro2a cells (Mus musculus, UniProt Q5XKN4)
# T5 sequence (Q5XKN4 1-183): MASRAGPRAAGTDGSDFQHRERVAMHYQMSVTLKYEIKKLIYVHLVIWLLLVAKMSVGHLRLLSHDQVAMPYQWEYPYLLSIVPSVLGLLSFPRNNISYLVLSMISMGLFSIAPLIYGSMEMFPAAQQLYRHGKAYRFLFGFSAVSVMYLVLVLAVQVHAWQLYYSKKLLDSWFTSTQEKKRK
# [10] = target: T6, AEA-DA lipid probe targets in Neuro2a cells (Mus musculus, UniProt P57776)
# T6 sequence (P57776 1-281): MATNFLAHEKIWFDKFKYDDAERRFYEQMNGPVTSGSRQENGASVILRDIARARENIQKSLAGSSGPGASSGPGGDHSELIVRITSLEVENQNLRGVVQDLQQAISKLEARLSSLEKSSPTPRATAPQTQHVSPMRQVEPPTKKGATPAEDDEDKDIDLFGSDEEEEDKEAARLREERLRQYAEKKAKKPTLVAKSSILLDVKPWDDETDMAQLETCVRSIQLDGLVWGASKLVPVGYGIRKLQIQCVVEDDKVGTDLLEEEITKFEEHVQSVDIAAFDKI
# Sequence of AEA-DA lipid probe targets in Neuro2a cells (Mus musculus, UniProt P60229) (P60229 whole entry): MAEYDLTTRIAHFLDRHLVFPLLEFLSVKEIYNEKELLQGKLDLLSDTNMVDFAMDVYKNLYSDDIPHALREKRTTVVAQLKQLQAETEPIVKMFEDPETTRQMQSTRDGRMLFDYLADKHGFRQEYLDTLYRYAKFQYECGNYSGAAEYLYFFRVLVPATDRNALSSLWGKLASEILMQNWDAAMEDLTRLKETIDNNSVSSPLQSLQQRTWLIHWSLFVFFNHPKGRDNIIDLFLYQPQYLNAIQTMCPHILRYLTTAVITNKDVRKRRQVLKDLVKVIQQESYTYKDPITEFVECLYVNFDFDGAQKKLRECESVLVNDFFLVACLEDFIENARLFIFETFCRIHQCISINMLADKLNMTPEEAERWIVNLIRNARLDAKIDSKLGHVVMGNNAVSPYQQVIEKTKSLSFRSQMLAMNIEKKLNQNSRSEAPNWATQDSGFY
# Sequence of AEA-DA lipid probe targets in Neuro2a cells (Mus musculus, UniProt P70699) (P70699 70-953): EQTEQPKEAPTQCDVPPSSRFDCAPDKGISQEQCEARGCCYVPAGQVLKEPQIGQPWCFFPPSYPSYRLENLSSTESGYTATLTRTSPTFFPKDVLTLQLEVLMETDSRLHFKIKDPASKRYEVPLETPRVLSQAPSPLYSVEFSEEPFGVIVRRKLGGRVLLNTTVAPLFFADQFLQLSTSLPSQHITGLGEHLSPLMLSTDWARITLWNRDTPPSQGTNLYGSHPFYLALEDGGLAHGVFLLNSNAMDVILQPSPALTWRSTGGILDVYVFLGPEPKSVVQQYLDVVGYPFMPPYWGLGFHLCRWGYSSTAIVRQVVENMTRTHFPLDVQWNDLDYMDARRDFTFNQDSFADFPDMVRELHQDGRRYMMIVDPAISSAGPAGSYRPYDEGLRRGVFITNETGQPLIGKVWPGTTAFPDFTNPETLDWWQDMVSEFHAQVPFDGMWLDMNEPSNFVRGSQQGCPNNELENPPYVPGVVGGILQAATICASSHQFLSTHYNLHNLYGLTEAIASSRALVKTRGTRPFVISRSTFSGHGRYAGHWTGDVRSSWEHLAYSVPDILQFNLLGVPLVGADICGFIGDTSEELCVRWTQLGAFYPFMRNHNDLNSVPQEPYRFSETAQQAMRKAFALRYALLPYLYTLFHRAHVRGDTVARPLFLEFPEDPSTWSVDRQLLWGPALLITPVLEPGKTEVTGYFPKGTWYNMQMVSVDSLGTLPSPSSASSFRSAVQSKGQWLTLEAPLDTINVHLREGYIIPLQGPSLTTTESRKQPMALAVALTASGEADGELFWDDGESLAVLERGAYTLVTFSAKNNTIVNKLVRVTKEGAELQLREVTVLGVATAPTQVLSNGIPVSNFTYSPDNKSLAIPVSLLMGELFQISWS
# Sequence of AEA-DA lipid probe targets in Neuro2a cells (Mus musculus, UniProt P52019) (P52019 whole entry): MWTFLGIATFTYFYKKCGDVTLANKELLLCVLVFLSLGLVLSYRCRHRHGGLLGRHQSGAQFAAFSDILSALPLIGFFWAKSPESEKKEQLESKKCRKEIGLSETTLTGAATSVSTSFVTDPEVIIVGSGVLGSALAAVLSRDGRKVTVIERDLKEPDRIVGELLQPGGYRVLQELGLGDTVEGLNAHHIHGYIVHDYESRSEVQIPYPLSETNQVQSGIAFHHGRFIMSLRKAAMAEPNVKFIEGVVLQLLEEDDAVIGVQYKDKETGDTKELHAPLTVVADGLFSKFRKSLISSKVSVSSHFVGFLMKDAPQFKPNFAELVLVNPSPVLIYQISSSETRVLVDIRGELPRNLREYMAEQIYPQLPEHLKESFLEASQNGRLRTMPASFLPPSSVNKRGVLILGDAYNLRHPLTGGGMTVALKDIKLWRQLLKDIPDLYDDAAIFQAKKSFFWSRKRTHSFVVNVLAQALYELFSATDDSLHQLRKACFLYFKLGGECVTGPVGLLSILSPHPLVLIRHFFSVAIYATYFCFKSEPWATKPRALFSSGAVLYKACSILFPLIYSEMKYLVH
# Sequence of AEA-DA lipid probe targets in Neuro2a cells (Mus musculus, UniProt Q91XC9) (Q91XC9 whole entry): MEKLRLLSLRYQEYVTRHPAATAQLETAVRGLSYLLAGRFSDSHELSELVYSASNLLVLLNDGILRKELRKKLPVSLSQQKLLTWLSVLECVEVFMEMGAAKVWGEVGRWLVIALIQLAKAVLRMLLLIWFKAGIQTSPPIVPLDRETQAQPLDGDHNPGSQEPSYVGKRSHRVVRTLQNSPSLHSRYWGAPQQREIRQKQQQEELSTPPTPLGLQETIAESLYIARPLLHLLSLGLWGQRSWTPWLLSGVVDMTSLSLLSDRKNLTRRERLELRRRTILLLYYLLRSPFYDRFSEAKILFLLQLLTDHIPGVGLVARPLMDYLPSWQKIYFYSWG
compound,measurement,setting,value
"O=C(/C=C/c1cccnc1)NCCCCC1CCN(C(=O)c2ccccc2)CC1 [FK-866, reference compound]",SILAC ratio Mtch2,[1]; competitor 25 μM,1.1
same,"SILAC ratio, Dhrs1",[2]; competitor 25 μM,8.0
same,SILAC ratio Eif3e,[3]; competitor 25 μM,1.1
same,SILAC ratio Gaa,[4]; competitor 25 μM,1.1
same,"SILAC ratio, SQLE (Q14534)",[5]; competitor 25 μM,1.1
same,SILAC ratio Sqle,[5]; competitor 25 μM,1.1
same,SILAC ratio Scpep1,[6]; competitor 25 μM,1.2
same,"SILAC ratio, Pex16",[7]; competitor 25 μM,1.1
same,"SILAC ratio, Slc25a32",[8]; competitor 25 μM,1.1
same,"SILAC ratio, Jagn1",[9]; competitor 25 μM,1.1
same,SILAC ratio Eef1d,[10]; competitor 25 μM,1.2
"CCCCC/C=C\C/C=C\C/C=C\C/C=C\CCCC(=O)NCCO [AEA, anandamide, reference compound]",SILAC ratio Mtch2,[1]; competitor 200 μM,1.5
same,"SILAC ratio, Dhrs1",[2]; competitor 200 μM,18.4
same,SILAC ratio Eif3e,[3]; competitor 200 μM,1.2
same,SILAC ratio Gaa,[4]; competitor 200 μM,1.4
same,"SILAC ratio, SQLE (Q14534)",[5]; competitor 200 μM,1.9
same,SILAC ratio Sqle,[5]; competitor 200 μM,1.9
same,SILAC ratio Scpep1,[6]; competitor 200 μM,1.0
same,"SILAC ratio, Pex16",[7]; competitor 200 μM,1.7
same,"SILAC ratio, Slc25a32",[8]; competitor 200 μM,1.5
same,"SILAC ratio, Jagn1",[9]; competitor 200 μM,2.1
same,SILAC ratio Eef1d,[10]; competitor 200 μM,1.1
"CN1CCN(C(=O)c2c(-c3ccccc3)c3cc([N+](=O)[O-])ccc3n2C)CC1 [KML110, (1-Methyl-5-nitro-3-phenyl-1H-indol-2-yl)(4-methylpiperazin-1-yl)methanone]",SILAC ratio Mtch2,[1]; competitor 25 μM,1.3
same,"SILAC ratio, Dhrs1",[2]; competitor 25 μM,2.7
same,SILAC ratio Eif3e,[3]; competitor 25 μM,1.4
same,SILAC ratio Gaa,[4]; competitor 25 μM,1.6
same,SILAC ratio Sqle,[5]; competitor 25 μM,1.3
same,SILAC ratio Scpep1,[6]; competitor 25 μM,1.6
same,"SILAC ratio, Pex16",[7]; competitor 25 μM,1.4
same,"SILAC ratio, Slc25a32",[8]; competitor 25 μM,1.5
same,"SILAC ratio, Jagn1",[9]; competitor 25 μM,1.5
same,SILAC ratio Eef1d,[10]; competitor 25 μM,1.4
"C=CCN(C)CCCCCCOc1ccc(C(=O)c2ccc(Br)cc2)c(F)c1 [Ro 48-8071, reference compound]",SILAC ratio Mtch2,[1]; competitor 25 μM,0.9
same,"SILAC ratio, Dhrs1",[2]; competitor 25 μM,9.5
same,SILAC ratio Eif3e,[3]; competitor 25 μM,0.8
same,SILAC ratio Gaa,[4]; competitor 25 μM,0.5
same,"SILAC ratio, SQLE (Q14534)",[5]; competitor 25 μM,1.0
same,SILAC ratio Sqle,[5]; competitor 25 μM,1.0
same,SILAC ratio Scpep1,[6]; competitor 25 μM,0.4
same,"SILAC ratio, Pex16",[7]; competitor 25 μM,1.3
same,"SILAC ratio, Slc25a32",[8]; competitor 25 μM,1.1
same,"SILAC ratio, Jagn1",[9]; competitor 25 μM,1.0
same,SILAC ratio Eef1d,[10]; competitor 25 μM,0.9
"CN1CCN(C(=O)c2[nH]c3ccc([N+](=O)[O-])cc3c2-c2ccccc2)CC1 [MJN228, (4-Methylpiperazin-1-yl)(5-nitro-3-phenyl-1H-indol-2-yl)methanone]",SILAC ratio Mtch2,[1]; competitor 10 μM,1.2
same,SILAC ratio Mtch2,[1]; competitor 25 μM,1.3
same,SILAC ratio Mtch2,[1]; competitor 50 μM,1.1
same,SILAC ratio Mtch2,[1]; competitor 100 μM,1.4
same,"SILAC ratio, Dhrs1",[2]; competitor 10 μM,1.4
same,"SILAC ratio, Dhrs1",[2]; competitor 25 μM,1.8
same,"SILAC ratio, Dhrs1",[2]; competitor 50 μM,2.4
same,"SILAC ratio, Dhrs1",[2]; competitor 100 μM,4.4
same,SILAC ratio Eif3e,[3]; competitor 10 μM,1.1
same,SILAC ratio Eif3e,[3]; competitor 25 μM,1.1
same,SILAC ratio Eif3e,[3]; competitor 50 μM,1.0
same,SILAC ratio Eif3e,[3]; competitor 100 μM,1.0
same,SILAC ratio Gaa,[4]; competitor 10 μM,1.0
same,SILAC ratio Gaa,[4]; competitor 25 μM,1.2
same,SILAC ratio Gaa,[4]; competitor 50 μM,1.4
same,SILAC ratio Gaa,[4]; competitor 100 μM,1.2
same,"SILAC ratio, SQLE (Q14534)",[5]; competitor 25 μM,1.5
same,SILAC ratio Sqle,[5]; competitor 10 μM,1.3
same,SILAC ratio Sqle,[5]; competitor 25 μM,1.5
same,SILAC ratio Sqle,[5]; competitor 100 μM,2.1
same,SILAC ratio Scpep1,[6]; competitor 10 μM,1.2
same,SILAC ratio Scpep1,[6]; competitor 25 μM,1.4
same,SILAC ratio Scpep1,[6]; competitor 50 μM,1.5
same,SILAC ratio Scpep1,[6]; competitor 100 μM,1.9
same,"SILAC ratio, Pex16",[7]; competitor 10 μM,0.9
same,"SILAC ratio, Pex16",[7]; competitor 25 μM,1.5
same,"SILAC ratio, Pex16",[7]; competitor 50 μM,2.3
same,"SILAC ratio, Pex16",[7]; competitor 100 μM,2.2
same,"SILAC ratio, Slc25a32",[8]; competitor 10 μM,1.5
same,"SILAC ratio, Slc25a32",[8]; competitor 25 μM,1.5
same,"SILAC ratio, Slc25a32",[8]; competitor 50 μM,1.5
same,"SILAC ratio, Slc25a32",[8]; competitor 100 μM,1.9
same,"SILAC ratio, Jagn1",[9]; competitor 10 μM,1.2
same,"SILAC ratio, Jagn1",[9]; competitor 25 μM,1.4
same,"SILAC ratio, Jagn1",[9]; competitor 50 μM,1.6
same,"SILAC ratio, Jagn1",[9]; competitor 100 μM,2.1
same,SILAC ratio Eef1d,[10]; competitor 25 μM,1.3
same,SILAC ratio Eef1d,[10]; competitor 100 μM,1.4

# Source: patent US10168342B2, “Lipid probes and uses thereof” (THE SCRIPPS RESEARCH INSTITUTE, priority 2015, dated 2019)
